Drawing on PubChem BioAssay AID1053166 (Broad Institute, 2014), this text covers AC50 for four compounds.

The subject of this test is Vaccinia-infected cells, mCherry/Venus stage reporter fluorescence. Kind of test: inhibition of vaccinia stage-reporter fluorescence – cell-based, dry powder, dose response (AID 1053166).

`Cc1cccc(-c2ccc(CN(C)C[C@@H]3Oc4cc(C#C[C@@H](C)O)ccc4S(=O)(=O)N([C@@H](C)CO)C[C@@H]3C)cc2)c1`: the AC50 was 2370 nM. On to `Cc1ccccc1-c1ccc(CN(C)C[C@@H]2Oc3cc(C#C[C@@H](C)O)ccc3S(=O)(=O)N([C@@H](C)CO)C[C@@H]2C)cc1`, for which the AC50 is 1150 nM. Consider `C[C@@H](O)C#Cc1ccc2c(c1)O[C@@H](CN(C)Cc1ccc(-c3ccccc3Cl)cc1)[C@@H](C)CN([C@@H](C)CO)S2(=O)=O`, for which the AC50 was 992 nM. The same measure for `Cc1ccc(-c2ccc(CN(C)C[C@@H]3Oc4cc(C#C[C@@H](C)O)ccc4S(=O)(=O)N([C@@H](C)CO)C[C@@H]3C)cc2)cc1`: 1790 nM.
